According to US20260034075A1, “CHOLINE CARBOXYLIC ACID BASED IONIC LIQUIDS AS ANTIMICROBIAL AGENTS” (University of Mississippi, priority 2022, published 2026):

Tested on: E. coli [BL21(DE3)]
Test: Minimal Bactericidal Concentration (MBC) measurements, E. coli
Format: cell-based
Conditions: for E. coli MBC: Table 1, lowest IL concentration with no growth on LBKan agar plate, triplicate
Experimental: Bacterial Cell Culturing. Expression cells from frozen stock were streaked onto a kanamycin-selected lysogeny broth (LBKan) agar plate using a sterile loop and incubated overnight at 37° C. One colony was then taken from the plate the next day to inoculate 50 mL of sterile LBKan broth and shaken at 37° C. until reaching a growth concentration of 4×10^8 CFU/mL. This protocol was used for bacterial cell culture preparation in all of the experiments described below.
Minimal Bactericidal Concentration (MBC) Measurements. E. coli cells were cultured as described above and aliquoted into sterile tubes. 1%, 10%, and 100% (w/v) solutions of IL in sterile water (correcting for water percentage of the IL) were prepared and sonicated for 15 minutes at 40° C. before addition to the liquid culture. IL solutions were then added to E. coli at varying percentages (v/v), allowing calculation of the actual concentration of IL that was added to the culture. 100 μL of each solution was then spread onto an LBKan agar plate and incubated overnight at 37° C. […] Each IL solution was tested in triplicate.

Molecule	E. coli MBC [mM]	E. coli MBC / killing efficacy concentration [mM]
CCCCCC(=O)[O-].C[N+](C)(C)CCO [CAHA 1:1, Choline Hexanoate 1:1]	483.53	–
CCCCCCCCCCC(=O)[O-].C[N+](C)(C)CCO [CAUA 1:1, Choline Undecanoate 1:1]	15.50	–
CCCC=CC(=O)[O-].C[N+](C)(C)CCO [CA2HE 1:1, Choline 2-Hexenoate 1:1]	507.63	–
CCCCCCCCCCCC(=O)[O-].C[N+](C)(C)CCO [CADDA 1:1, Choline Dodecanoate 1:1]	17.10	17.1
CCOCC(=O)[O-].C[N+](C)(C)CCO [CAEA 1:1, Choline Ethoxyacetate 1:1]	1746.07	–
CCCCCCC(=O)[O-].C[N+](C)(C)CCO [CAHPA 1:1, Choline Heptanoate 1:1]	101.80	–
Choline 2-Hexenoate 1:2 [CA2HE 1:2]	54.37	–
Choline Octanoate 1:2 [CAOA 1:2]	4.91	–
CCCCCCCC=CC(=O)[O-].C[N+](C)(C)CCO [CA2DE 1:1, Choline 2-Decenoate 1:1]	3.67	–
CCCCC/C=C/CC(=O)O [CA3NE 1:1, Choline 3-Nonenoate 1:1]	57.50	–
CCCCCCC=CCC(=O)[O-].C[N+](C)(C)CCO [CA3DE 1:1, Choline 3-Decenoate 1:1]	3.10	–
CC=CC(=O)[O-].C[N+](C)(C)CCO [CA2BE 1:1, Choline 2-Butenoate 1:1]	1330.40	–
CCCCCCCCC(=O)[O-].C[N+](C)(C)CCO [CANA 1:1, Choline Nonanoate 1:1]	13.63	–
Choline 3-Mercaptopropionate 1:2 [CA3MP 1:2]	101.07	–
CCCC(=O)[O-].C[N+](C)(C)CCO [CABA 1:1, Choline Butanoate 1:1]	1234.35	–
CCC=CC(=O)[O-].C[N+](C)(C)CCO [CA2PE 1:1, Choline 2-Pentenoate 1:1]	1151.30	–
CCCCCCCC/C=C/C(=O)O [CA2UE 1:1, Choline 2-Undecenoate 1:1]	15.08	–
C[N+](C)(C)CCO.O=C([O-])C=CC(=O)O [CAME 1:1, Choline Maleate 1:1]	38.37	–
CCCCC/C=C/C(=O)O [CA2OE 1:1, Choline 2-Octenoate 1:1]	84.70	–

Molecule	E. coli MBC [mM]	E. coli MBC / killing efficacy concentration [mM]
Choline 2-Decenoate 1:2 [CA2DE 1:2]	0.77	–
Choline Hexanoate 1:2 [CAHA 1:2]	28.23	–
CC/C=C(\C)C(=O)O [CAGAS 1:1, Choline trans-2-Methyl-2-Pentenoate 1:1]	530.73	–
CC/C=C(\C)C(=O)O [CAGAS 1:2, Choline trans-2-Methyl-2-Pentenoate 1:2]	44.60	–
CC(=O)OCC(=O)O [CAAA 1:1, Choline Acetoxyacetate 1:1]	73.40	–
C[N+](C)(C)CCO.O=C(O)CC(O)C(=O)[O-] (stereo not shown) [CAMI 1:1, Choline Malate 1:1]	1126.13	–
CCCCCC/C=C/C(=O)O [CA2NE 1:2, Choline 2-Nonenoate 1:2]	1.22	–
CCCCC(=O)[O-].C[N+](C)(C)CCO [CAPA 1:1, Choline Pentanoate 1:1]	792.10	–
Choline 3-Heptenoate 1:2 [CA3HPE 1:2]	18.93	–
CCCCC=CC(=O)[O-].C[N+](C)(C)CCO [CA2HPE 1:1, Choline 2-Heptenoate 1:1]	346.93	–
C[N+](C)(C)CCO.O=C([O-])/C=C/C(=O)O [CAFU 1:1, Choline Fumarate 1:1]	27.17	–
Choline Acetoxyacetate 1:2 [CAAA 1:2]	12.41	–
Choline Maleate 1:2 [CAME 1:2]	20.00	–
Choline Heptanoate 1:2 [CAHPA 1:2]	16.33	–
Choline 3-Hexenoate 1:2 [CA3HE 1:2]	52.00	–
CC=CCC(=O)[O-].C[N+](C)(C)CCO [CA3PE 1:1, Choline 3-Pentenoate 1:1]	1152.23	–
Choline 3-Octenoate 1:2 [CA3OE 1:2]	2.16	–
Choline Butanoate 1:2 [CABA 1:2]	152.70	–
Choline 2-Pentenoate 1:2 [CA2PE 1:2]	120.10	–

Molecule	E. coli MBC [mM]	E. coli MBC / killing efficacy concentration [mM]
C[N+](C)(C)CCO.O=C([O-])CCS [CA3MP 1:1, Choline 3-Mercaptopropionate 1:1]	1378.42	–
Choline Pentanoate 1:2 [CAPA 1:2]	110.37	–
Choline 3-Pentenoate 1:2 [CA3PE 1:2]	134.83	–
Choline Ethoxyacetate 1:2 [CAEA 1:2]	89.20	–
CCCC=CCC(=O)[O-].C[N+](C)(C)CCO [CA3HPE 1:1, Choline 3-Heptenoate 1:1]	347.63	–
Choline 2-Butenoate 1:2 [CA2BE 1:2]	158.97	–
Choline Nonanoate 1:2 [CANA 1:2]	1.01	–
CCCC/C=C/CC(=O)O [CA3OE 1:1, Choline 3-Octenoate 1:1]	92.00	–
C=CCC(=O)[O-].C[N+](C)(C)CCO [CA3BE 1:1, Choline 3-Butenoate 1:1]	1350.93	–
Choline 3-Butenoate 1:2 [CA3BE 1:2]	153.33	–
Choline Malonate 1:2 [CAMA 1:2]	21.60	–
C[N+](C)(C)CCO.O=C([O-])CC(=O)O [CAMA 1:1, Choline Malonate 1:1]	1368.53	–
Choline 2-Octenoate 1:2 [CA2OE 1:2]	5.18	–
CC/C=C/CC(=O)O [CA3HE 1:1, Choline 3-Hexenoate 1:1]	511.17	–
Choline Malate 1:2 [CAMI 1:2]	91.80	–
CCCCCCCC(=O)[O-].C[N+](C)(C)CCO [CAOA 1:1, Choline Octanoate 1:1]	76.63	–
CCCCCC/C=C/C(=O)O [CA2NE 1:1, Choline 2-Nonenoate 1:1]	56.40	–
Choline Fumarate 1:2 [CAFU 1:2]	10.05	–
Choline 2-Heptenoate 1:2 [CA2HPE 1:2]	21.33	–
